target: not listed separately; assay: Inhibition of H+/K+ ATPase at pH 7.4; conditions: not given

Structure (SMILES)	pIC50
Cc1cccc(C)c1CNc1ncnc2c(C)csc12	< 4
Cc1cccc(C)c1CNc1ncnc2c(C)c(C)[nH]c12	5.9
Cc1cccc(C)c1CNc1cccc2c1nc(C)n2C	5.5
Cc1cccc(C)c1CNc1nc(N2CCOCC2=O)cc2c(C)c(C)[nH]c12	5.9
Cc1cccc(C)c1CNc1nccn2c(C)c(C)nc12	7.1
Cc1cccc(C)c1CNc1nc(-n2ccccc2=O)cc2c(C)c(C)n(CCO)c12	6.8
Cc1cccc(C)c1CNc1nccc2c(C)c(C)[nH]c12	9.4

target: T1, Cytochrome P450 1A2 (Homo sapiens, UniProt P05177); assay: Inhibition of CYP1A2; assay type: ADME; conditions: not given
T1 sequence (P05177 whole entry): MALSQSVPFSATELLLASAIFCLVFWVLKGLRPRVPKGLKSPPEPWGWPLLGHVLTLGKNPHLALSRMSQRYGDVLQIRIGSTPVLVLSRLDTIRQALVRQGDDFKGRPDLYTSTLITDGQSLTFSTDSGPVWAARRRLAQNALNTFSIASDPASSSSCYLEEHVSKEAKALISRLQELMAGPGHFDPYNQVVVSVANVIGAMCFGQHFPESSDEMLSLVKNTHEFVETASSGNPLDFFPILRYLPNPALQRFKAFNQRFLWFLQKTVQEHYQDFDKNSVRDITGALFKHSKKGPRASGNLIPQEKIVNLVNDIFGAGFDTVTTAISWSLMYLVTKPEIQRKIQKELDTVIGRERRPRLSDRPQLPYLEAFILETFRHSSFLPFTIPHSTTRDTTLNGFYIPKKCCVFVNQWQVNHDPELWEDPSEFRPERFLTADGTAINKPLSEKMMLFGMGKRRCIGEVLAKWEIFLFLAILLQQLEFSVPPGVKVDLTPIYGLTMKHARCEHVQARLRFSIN

Structure (SMILES)	IC50
Cc1cccc(C)c1CNc1ncnc2c(C)c(C)[nH]c12	> 100 µM
Cc1cccc(C)c1CNc1cccc2c1nc(C)n2C	2.1 µM
Cc1cccc(C)c1CNc1nc(N2CCOCC2=O)cc2c(C)c(C)[nH]c12	35 µM
Cc1cccc(C)c1CNc1nc(-n2ccccc2=O)cc2c(C)c(C)n(CCO)c12	> 100 µM
Cc1cccc(C)c1CNc1nccc2c(C)c(C)[nH]c12	14 µM

target: Cytochrome P450 2C19 (Homo sapiens, UniProt P33261); assay: Inhibition of CYP2C19; assay type: ADME; conditions: not given
Sequence (P33261 whole entry): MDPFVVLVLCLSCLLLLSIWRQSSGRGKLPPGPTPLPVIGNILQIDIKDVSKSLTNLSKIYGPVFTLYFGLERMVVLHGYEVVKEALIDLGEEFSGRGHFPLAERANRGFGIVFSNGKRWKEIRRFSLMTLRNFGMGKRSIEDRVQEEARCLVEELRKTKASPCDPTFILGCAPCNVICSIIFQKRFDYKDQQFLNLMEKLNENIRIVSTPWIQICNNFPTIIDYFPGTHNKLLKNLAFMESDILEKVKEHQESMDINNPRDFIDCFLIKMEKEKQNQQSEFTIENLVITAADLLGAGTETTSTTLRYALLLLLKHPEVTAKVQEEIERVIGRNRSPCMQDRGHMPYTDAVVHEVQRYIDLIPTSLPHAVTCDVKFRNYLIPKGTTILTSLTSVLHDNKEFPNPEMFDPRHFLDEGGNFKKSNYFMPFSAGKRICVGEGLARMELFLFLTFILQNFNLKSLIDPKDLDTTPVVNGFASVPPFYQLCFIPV

Structure (SMILES)	IC50
Cc1cccc(C)c1CNc1ncnc2c(C)c(C)[nH]c12	> 10 µM
Cc1cccc(C)c1CNc1cccc2c1nc(C)n2C	9.2 µM
Cc1cccc(C)c1CNc1nc(N2CCOCC2=O)cc2c(C)c(C)[nH]c12	66 µM
Cc1cccc(C)c1CNc1nc(-n2ccccc2=O)cc2c(C)c(C)n(CCO)c12	40 µM
Cc1cccc(C)c1CNc1nccc2c(C)c(C)[nH]c12	1.8 µM

target: Cytochrome P450 2D6 (Homo sapiens, UniProt P10635); assay: Inhibition of CYP2D6; assay type: ADME; conditions: not given
Sequence (P10635 whole entry): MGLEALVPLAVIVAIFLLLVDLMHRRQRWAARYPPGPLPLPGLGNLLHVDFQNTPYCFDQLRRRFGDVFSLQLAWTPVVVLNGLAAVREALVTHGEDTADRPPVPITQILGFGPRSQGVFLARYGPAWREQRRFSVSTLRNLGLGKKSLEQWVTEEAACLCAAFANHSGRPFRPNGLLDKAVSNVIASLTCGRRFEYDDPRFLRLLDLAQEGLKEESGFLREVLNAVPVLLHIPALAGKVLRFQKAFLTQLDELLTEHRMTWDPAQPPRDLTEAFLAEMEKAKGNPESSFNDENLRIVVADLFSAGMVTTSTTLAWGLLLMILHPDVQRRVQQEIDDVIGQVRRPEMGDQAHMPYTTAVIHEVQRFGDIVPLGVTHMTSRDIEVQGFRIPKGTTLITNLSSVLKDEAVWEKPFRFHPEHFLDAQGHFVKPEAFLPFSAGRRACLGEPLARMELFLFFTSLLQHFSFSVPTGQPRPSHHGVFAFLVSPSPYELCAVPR

Structure (SMILES)	IC50
Cc1cccc(C)c1CNc1ncnc2c(C)c(C)[nH]c12	0.3 µM
Cc1cccc(C)c1CNc1cccc2c1nc(C)n2C	35 µM
Cc1cccc(C)c1CNc1nc(N2CCOCC2=O)cc2c(C)c(C)[nH]c12	25 µM
Cc1cccc(C)c1CNc1nc(-n2ccccc2=O)cc2c(C)c(C)n(CCO)c12	45.5 µM
Cc1cccc(C)c1CNc1nccc2c(C)c(C)[nH]c12	< 0.1 µM

target: T2, Cytochrome P450 3A4 (Homo sapiens, UniProt P08684); assay: Inhibition of CYP3A4 using diethoxyfluorescein substrate; assay type: ADME; conditions: not given
T2 sequence (P08684 whole entry): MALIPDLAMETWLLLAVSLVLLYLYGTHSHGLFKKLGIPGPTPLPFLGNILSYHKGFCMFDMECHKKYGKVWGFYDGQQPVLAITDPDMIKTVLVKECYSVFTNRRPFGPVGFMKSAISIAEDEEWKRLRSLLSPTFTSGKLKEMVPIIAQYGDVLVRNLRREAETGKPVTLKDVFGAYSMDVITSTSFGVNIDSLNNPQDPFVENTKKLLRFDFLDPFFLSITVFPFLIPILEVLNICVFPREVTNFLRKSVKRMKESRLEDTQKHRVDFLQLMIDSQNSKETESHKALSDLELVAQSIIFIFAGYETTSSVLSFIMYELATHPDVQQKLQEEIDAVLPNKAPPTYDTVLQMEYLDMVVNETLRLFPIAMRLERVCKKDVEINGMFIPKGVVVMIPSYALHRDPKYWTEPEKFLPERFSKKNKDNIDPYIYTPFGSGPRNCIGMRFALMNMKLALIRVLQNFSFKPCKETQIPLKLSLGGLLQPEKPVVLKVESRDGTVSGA

Structure (SMILES)	IC50
Cc1cccc(C)c1CNc1ncnc2c(C)c(C)[nH]c12	8.8 µM
Cc1cccc(C)c1CNc1cccc2c1nc(C)n2C	13 µM
Cc1cccc(C)c1CNc1nc(N2CCOCC2=O)cc2c(C)c(C)[nH]c12	22 µM
Cc1cccc(C)c1CNc1nc(-n2ccccc2=O)cc2c(C)c(C)n(CCO)c12	5.6 µM
Cc1cccc(C)c1CNc1nccc2c(C)c(C)[nH]c12	9 µM

target: T2, Cytochrome P450 3A4; assay: Inhibition of CYP3A4 using 7-benzyloxyquinoline substrate; assay type: ADME; conditions: not given

Structure (SMILES)	IC50
Cc1cccc(C)c1CNc1ncnc2c(C)c(C)[nH]c12	> 100 µM
Cc1cccc(C)c1CNc1cccc2c1nc(C)n2C	9 µM
Cc1cccc(C)c1CNc1nc(N2CCOCC2=O)cc2c(C)c(C)[nH]c12	22 µM
Cc1cccc(C)c1CNc1nccc2c(C)c(C)[nH]c12	9.6 µM

test system: not listed separately; assay: Intrinsic clearance in rat liver microsomes; assay type: ADME, Microsome; conditions: not given

Structure (SMILES)	CLint scaled
Cc1cccc(C)c1CNc1ncnc2c(C)c(C)[nH]c12	9 mL/min/kg
Cc1cccc(C)c1CNc1cccc2c1nc(C)n2C	47 mL/min/kg
Cc1cccc(C)c1CNc1nc(N2CCOCC2=O)cc2c(C)c(C)[nH]c12	4.3 mL/min/kg
Cc1cccc(C)c1CNc1nc(-n2ccccc2=O)cc2c(C)c(C)n(CCO)c12	21.9 mL/min/kg
Cc1cccc(C)c1CNc1nccc2c(C)c(C)[nH]c12	50 mL/min/kg

test system: not listed separately; assay: Intrinsic clearance in dog liver microsomes; assay type: ADME, Canis lupus familiaris, Microsome; conditions: not given

Structure (SMILES)	CLint scaled
Cc1cccc(C)c1CNc1nccc2c(C)c(C)[nH]c12	19 mL/min/kg

test system: not listed separately; assay: Intrinsic clearance in human liver microsomes; assay type: ADME, Microsome; conditions: not given

Structure (SMILES)	CLint scaled
Cc1cccc(C)c1CNc1ncnc2c(C)c(C)[nH]c12	2.8 mL/min/kg
Cc1cccc(C)c1CNc1cccc2c1nc(C)n2C	8 mL/min/kg
Cc1cccc(C)c1CNc1nc(N2CCOCC2=O)cc2c(C)c(C)[nH]c12	1.6 mL/min/kg
Cc1cccc(C)c1CNc1nc(-n2ccccc2=O)cc2c(C)c(C)n(CCO)c12	12.1 mL/min/kg
Cc1cccc(C)c1CNc1nccc2c(C)c(C)[nH]c12	5 mL/min/kg

test system: not listed separately; assay: Dissociation constant, pKa of the compound; assay type: physicochemical; conditions: not given

Structure (SMILES)	pKa
Cc1cccc(C)c1CNc1nc(N2CCOCC2=O)cc2c(C)c(C)[nH]c12	Insoluble

same assay, conditions: read-out: pKa

Structure (SMILES)	pKa
Cc1cccc(C)c1CNc1nc(-n2ccccc2=O)cc2c(C)c(C)n(CCO)c12	4.5

test system: not listed separately; assay: Chromatographic hydrophobicity index at pH 7.4 by fast gradient HPLC; assay type: physicochemical; conditions: buffer

Structure (SMILES)	chromatographic logD
Cc1cccc(C)c1CNc1ncnc2c(C)c(C)[nH]c12	2.53
Cc1cccc(C)c1CNc1nc(N2CCOCC2=O)cc2c(C)c(C)[nH]c12	2.83
Cc1cccc(C)c1CNc1nccn2c(C)c(C)nc12	3.4
Cc1cccc(C)c1CNc1nc(-n2ccccc2=O)cc2c(C)c(C)n(CCO)c12	3.12
Cc1cccc(C)c1CNc1nccc2c(C)c(C)[nH]c12	2.29

test system: not listed separately; assay: Inhibition of H+/K+ ATPase in parietal cells assessed as inhibition of pentagastrin-stimulated [14C]aminopyrine accumulation at 50 nM; assay type: cell-based; conditions: not given

Structure (SMILES)	inhibition
Cc1cccc(C)c1CNc1nccc2c(C)c(C)[nH]c12	67.3%

target: Cytochrome P450 2C9 (Homo sapiens, UniProt P11712); assay: not given; conditions: not given
Sequence (P11712 whole entry): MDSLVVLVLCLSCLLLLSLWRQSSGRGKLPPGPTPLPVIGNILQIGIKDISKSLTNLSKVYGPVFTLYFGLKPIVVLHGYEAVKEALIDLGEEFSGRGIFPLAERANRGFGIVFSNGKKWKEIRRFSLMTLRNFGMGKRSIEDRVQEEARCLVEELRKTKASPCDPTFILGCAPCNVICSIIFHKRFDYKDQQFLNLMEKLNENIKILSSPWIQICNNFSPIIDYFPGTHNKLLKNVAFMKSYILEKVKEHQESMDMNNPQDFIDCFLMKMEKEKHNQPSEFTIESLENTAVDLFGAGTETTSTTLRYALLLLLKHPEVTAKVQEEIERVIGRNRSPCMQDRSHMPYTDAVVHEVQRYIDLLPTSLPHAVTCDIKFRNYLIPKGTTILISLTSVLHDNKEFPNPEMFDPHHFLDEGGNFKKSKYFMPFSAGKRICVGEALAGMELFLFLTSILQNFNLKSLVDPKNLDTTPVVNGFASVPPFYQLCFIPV

Structure (SMILES)	IC50
Cc1cccc(C)c1CNc1ncnc2c(C)c(C)[nH]c12	> 100 µM
Cc1cccc(C)c1CNc1cccc2c1nc(C)n2C	8.8 µM
Cc1cccc(C)c1CNc1nc(N2CCOCC2=O)cc2c(C)c(C)[nH]c12	61 µM
Cc1cccc(C)c1CNc1nc(-n2ccccc2=O)cc2c(C)c(C)n(CCO)c12	11.4 µM
Cc1cccc(C)c1CNc1nccc2c(C)c(C)[nH]c12	33 µM

test system: not listed separately; assay: Inhibition of H+/K+ ATPase in parietal cells assessed as inhibition of histamine-stimulated [14C]aminopyrine accumulation; conditions: not given

Structure (SMILES)	IC50
Cc1cccc(C)c1CNc1ncnc2c(C)c(C)[nH]c12	0.0631 µM
Cc1cccc(C)c1CNc1cccc2c1nc(C)n2C	0.0447 µM
Cc1cccc(C)c1CNc1nc(N2CCOCC2=O)cc2c(C)c(C)[nH]c12	0.2 µM
Cc1cccc(C)c1CNc1nccn2c(C)c(C)nc12	0.282 µM
Cc1cccc(C)c1CNc1nc(-n2ccccc2=O)cc2c(C)c(C)n(CCO)c12	0.251 µM
Cc1cccc(C)c1CNc1nccc2c(C)c(C)[nH]c12	0.0708 µM

Source: ChEMBL document CHEMBL1154377, “Evaluation of basic, heterocyclic ring systems as templates for use as potassium competitive acid blockers (pCABs)” (Bioorg Med Chem Lett, 2009)
